Reference: patent publication US6479435B1, “Diaryl ethers and processes for their preparation and herbicidal and desiccant compositions containing them” (ISK Americas Incorporated, priority 1997, dated 2002)

Key:
Assay type in all cases: in vivo
[1] = test system: Johnsongrass (Sorghum halepense, SORHA); assay: Pre-emerge greenhouse herbicide test, phytotoxicity rating; details: 14 days after application, rating scale 0-100
Method in brief: (§1)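 Visual 0–100 injury rating (100 = all plants dead) taken 14 days after treatment. Rates of 125–1000 g ai/ha in acetone, 187 l/ha, were sprayed onto soil one day post-sowing; pots were surface-watered to incorporate, then bottom-watered.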

[2] = test system: barnyardgrass (Echinochloa crusgalli, ECHCG); assay: as above; details: 14 days after application, rating scale 0-100
Method in brief: as §1

[3] = test system: common ragweed (Ambrosia artemisiifolia L., AMBEL); assay: as above; details: 14 days after application, rating scale 0-100
Method in brief: as §1

[4] = test system: green foxtail (Setaria viridis, SETVI); assay: as above; details: 14 days after application, rating scale 0-100
Method in brief: as §1

[5] = test system: ivyleaf morningglory (Ipomoea hederacea, IPOHE); assay: as above; details: 14 days after application, rating scale 0-100
Method in brief: as §1

[6] = test system: lambsquarters (Chenopodium album, CHEAL); assay: as above; details: 14 days after application, rating scale 0-100
Method in brief: as §1

[7] = test system: large crabgrass (Digitaria sanguinalis, DIGSA); assay: as above; details: 14 days after application, rating scale 0-100
Method in brief: as §1

[8] = test system: redroot pigweed (Amaranthus retroflexus, AMARE); assay: as above; details: 14 days after application, rating scale 0-100
Method in brief: as §1

[9] = test system: sicklepod (Cassia obtusifolia, CASOB); assay: as above; details: 14 days after application, rating scale 0-100
Method in brief: as §1

[10] = test system: velvetleaf (Abutilon theophrasti, ABUTH); assay: as above; details: 14 days after application, rating scale 0-100
Method in brief: as §1

[11] = test system: field corn (Zea mays L., var. Dekalb 535, CORN); assay: Pre-emerge greenhouse test, crop damage rating; details: 14 days after application, rating scale 0-100
Method in brief: as §1

[12] = test system: upland rice (Oryza sp., var.Tebonnet, RICE); assay: Pre-emerge greenhouse test, crop damage rating; details: 14 days after application, rating scale 0-100
Method in brief: as §1

[13] = test system: soybean (Glycine max L., var. Pella 86, SOY); assay: Pre-emerge greenhouse test, crop damage rating; set-up: key to SOY crop damage rating: 0 = no damage, 100 = complete death of all plants; details: 14 days after application, rating scale 0-100
Method in brief: as §1

[14] = test system: common ragweed (Ambrosia artemisiifolia L., AMBEL); assay: Post-emerge greenhouse herbicide test, phytotoxicity rating; details: 14 days after application; for phytotoxicity rating AMBEL: scale 0-100
Method in brief: (§2)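 Scores use a 0 (no damage) to 100 (complete kill) scale, taken 14 days after a foliar spray. Acetone solutions with 0.25% v/v non-ionic surfactant were applied by track sprayer at 187 l/ha and 63-1000 g ai/ha to bottom-watered 2-3 leaf plants.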

[15] = test system: Johnsongrass (Sorghum halepense, SORHA); assay: as above; details: 14 days after application; for phytotoxicity rating SORHA: scale 0-100
Method in brief: as §2

[16] = test system: barnyardgrass (Echinochloa crusgalli, ECHCG); assay: as above; details: 14 days after application; for phytotoxicity rating ECHCG: scale 0-100
Method in brief: as §2

[17] = test system: green foxtail (Setaria viridis, SETVI); assay: as above; details: 14 days after application; for phytotoxicity rating SETVI: scale 0-100
Method in brief: as §2

[18] = test system: ivyleaf morningglory (Ipomoea hederacea, IPOHE); assay: as above; details: 14 days after application; for phytotoxicity rating IPOHE: scale 0-100
Method in brief: as §2

[19] = test system: lambsquarters (Chenopodium album, CHEAL); assay: as above; details: 14 days after application; for phytotoxicity rating CHEAL: scale 0-100
Method in brief: as §2

[20] = test system: large crabgrass (Digitaria sanguinalis, DIGSA); assay: as above; details: 14 days after application; for phytotoxicity rating DIGSA: scale 0-100
Method in brief: as §2

[21] = test system: redroot pigweed (Amaranthus retroflexus, AMARE); assay: as above; details: 14 days after application; for phytotoxicity rating AMARE: scale 0-100
Method in brief: as §2

[22] = test system: sicklepod (Cassia obtusifolia, CASOB); assay: as above; details: 500 g al/ha, 14 days after application
Method in brief: as §2

[23] = test system: velvetleaf (Abutilon theophrasti, ABUTH); assay: as above; details: 14 days after application; for phytotoxicity rating ABUTH: scale 0-100
Method in brief: as §2

[24] = test system: field corn (Zea mays L., var. Dekalb 535, CORN); assay: Post-emerge greenhouse test, crop damage rating; details: 14 days after application; for crop damage rating CORN: scale 0-100
Method in brief: as §2

[25] = test system: upland rice (Oryza sp., var.Tebonnet, RICE); assay: Post-emerge greenhouse test, crop damage rating; details: 14 days after application; for crop damage rating RICE: scale 0-100
Method in brief: as §2

[26] = test system: soybean (Glycine max L., var. Pella 86, SOY); assay: Post-emerge greenhouse test, crop damage rating; set-up: key to crop damage rating SOY: 0-100 scale: 0 = no damage, 100 = complete death of all plants; details: 14 days after application; for crop damage rating SOY: scale 0-100
Method in brief: as §2

Cn1c(C(F)(F)F)nc(-c2cc(Oc3ncccc3C(F)(F)F)c(Cl)cc2F)c1Cl [Compound 2-2]
phytotoxicity rating SORHA ([1]; 500 g ai/ha): 30
phytotoxicity rating ECHCG ([2]; 500 g ai/ha): 0
phytotoxicity rating AMBEL ([3]; 500 g ai/ha): 20
phytotoxicity rating SETVI ([4]; 500 g ai/ha): 100
phytotoxicity rating IPOHE ([5]; 500 g ai/ha): 60
phytotoxicity rating CHEAL ([6]; 500 g ai/ha): 60
phytotoxicity rating DIGSA ([7]; 500 g ai/ha): 20
phytotoxicity rating AMARE ([8]; 500 g ai/ha): 100
phytotoxicity rating CASOB ([9]; 500 g ai/ha): 0
phytotoxicity rating ABUTH ([10]; 500 g ai/ha): 10
crop damage rating CORN ([11]; 500 g ai/ha): 0
crop damage rating RICE ([12]; 500 g ai/ha): 0
crop damage rating SOY ([13]; 500 g ai/ha): 15
AMBEL phytotoxicity rating (0-100) ([14]; 500 g al/ha): 25
SORHA phytotoxicity rating (0-100) ([15]; 500 g al/ha): 40
ECHCG phytotoxicity rating (0-100) ([16]; 500 g al/ha): 30
SETVI phytotoxicity rating (0-100) ([17]; 500 g al/ha): 30
IPOHE phytotoxicity rating (0-100) ([18]; 500 g al/ha): 75
CHEAL phytotoxicity rating (0-100) ([19]; 500 g al/ha): 90
DIGSA phytotoxicity rating (0-100) ([20]; 500 g al/ha): 10
AMARE phytotoxicity rating (0-100) ([21]; 500 g al/ha): 95
CASOB phytotoxicity rating (0-100) [22]: 0
ABUTH phytotoxicity rating (0-100) ([23]; 500 g al/ha): 70
CORN crop damage rating (0-100) ([24]; 500 g al/ha): 20
RICE crop damage rating (0-100) ([25]; 500 g al/ha): 40
SOY crop damage rating (0-100) ([26]; 500 g al/ha): 35

O=c1n(-c2cc(Oc3ncc([N+](=O)[O-])s3)c(Cl)cc2F)c(=S)n2n1CCCC2 [Compound 8-36]
SORHA phytotoxicity rating ([1]; Rate 125 g al/ha): 20
SORHA phytotoxicity rating ([1]; Rate 250 g al/ha): 50
ECHCG phytotoxicity rating ([2]; Rate 125 g al/ha): 0
ECHCG phytotoxicity rating ([2]; Rate 250 g al/ha): 70
AMBEL phytotoxicity rating ([3]; Rate 125 g al/ha): 90
AMBEL phytotoxicity rating ([3]; Rate 250 g al/ha): 100
SETVI phytotoxicity rating ([4]; Rate 125 g al/ha): 80
SETVI phytotoxicity rating ([4]; Rate 250 g al/ha): 99
IPOHE phytotoxicity rating ([5]; Rate 125 g al/ha): 90
IPOHE phytotoxicity rating ([5]; Rate 250 g al/ha): 70
CHEAL phytotoxicity rating ([6]; Rate 125 g al/ha): 100
CHEAL phytotoxicity rating ([6]; Rate 250 g al/ha): 100
DIGSA phytotoxicity rating ([7]; Rate 125 g al/ha): 70
DIGSA phytotoxicity rating ([7]; Rate 250 g al/ha): 80
AMARE phytotoxicity rating ([8]; Rate 125 g al/ha): 100
AMARE phytotoxicity rating ([8]; Rate 250 g al/ha): 100
CASOB phytotoxicity rating ([9]; Rate 125 g al/ha): 90
CASOB phytotoxicity rating ([9]; Rate 250 g al/ha): 70
ABUTH phytotoxicity rating ([10]; Rate 125 g al/ha): 100
ABUTH phytotoxicity rating ([10]; Rate 250 g al/ha): 100
CORN crop damage rating ([11]; Rate 125 g al/ha): 0
CORN crop damage rating ([11]; Rate 250 g al/ha): 20
RICE crop damage rating ([12]; Rate 125 g al/ha): 30
RICE crop damage rating ([12]; Rate 250 g al/ha): 70
SOY crop damage rating ([13]; Rate 125 g al/ha): 0
SOY crop damage rating ([13]; Rate 250 g al/ha): 100
phytotoxicity rating AMBEL ([14]; rate 63 g ai/ha): 20
phytotoxicity rating AMBEL ([14]; rate 250 g ai/ha): 20
phytotoxicity rating SORHA ([15]; rate 63 g ai/ha): 30
phytotoxicity rating SORHA ([15]; rate 250 g ai/ha): 90
phytotoxicity rating ECHCG ([16]; rate 63 g ai/ha): 50
phytotoxicity rating ECHCG ([16]; rate 250 g ai/ha): 40
phytotoxicity rating SETVI ([17]; rate 63 g ai/ha): 0
phytotoxicity rating SETVI ([17]; rate 250 g ai/ha): 30
phytotoxicity rating IPOHE ([18]; rate 63 g ai/ha): 100
phytotoxicity rating IPOHE ([18]; rate 250 g ai/ha): 95
phytotoxicity rating CHEAL ([19]; rate 63 g ai/ha): 95
phytotoxicity rating CHEAL ([19]; rate 250 g ai/ha): 99
phytotoxicity rating DIGSA ([20]; rate 63 g ai/ha): 30
phytotoxicity rating DIGSA ([20]; rate 250 g ai/ha): 60
phytotoxicity rating AMARE ([21]; rate 63 g ai/ha): 100
phytotoxicity rating AMARE ([21]; rate 250 g ai/ha): 100
phytotoxicity rating ABUTH ([23]; rate 63 g ai/ha): 100
phytotoxicity rating ABUTH ([23]; rate 250 g ai/ha): 100
crop damage rating CORN ([24]; rate 63 g ai/ha): 10
crop damage rating CORN ([24]; rate 250 g ai/ha): 10
crop damage rating RICE ([25]; rate 63 g ai/ha): 40
crop damage rating RICE ([25]; rate 250 g ai/ha): 30
crop damage rating SOY ([26]; rate 63 g ai/ha): 30
crop damage rating SOY ([26]; rate 250 g ai/ha): 90
